Assays:
HDV [1] = test: Woodchuck model of chronic HDV infection: serum HDV RNA; type: in vivo
Experimental: (§1) The woodchuck was used as an experimental model of chronic HDV infection to assess the effect of L-FMAU treatment on HDV replication. Woodchucks chronically infected with WHV were infected with a woodchuck-adapted HDV inoculum derived from a laboratory infectious clone. Nine of eleven infected animals were determined to have chronic HDV infection, as defined by RT/PCR-detectable HDV viremia (Niro et al. (1997) Hepatology 25, 728-734) for at least 74% of bleed dates for at least 11 months prior to the initiation of treatment. The range of duration of viremia prior to the start of the study was 11.4-20 months; the range of positive bleed dates was 74% to 100%. Animals in the treatment group (4) were given 10 mg/kg L-FMAU daily; animals in the control group (5) were given placebo. Serum samples were obtained before the initiation of treatment, and at weeks 2, 4, 8, 12, 16 and 20. Serum samples were analyzed for WHV DNA, WHV surface antigen and HDV RNA.

WHV = test: Woodchuck model of chronic HDV infection: serum WHV DNA; type: in vivo
Experimental: as §1

WHV surface antigen = test: Woodchuck model of chronic HDV infection: serum WHV surface antigen; type: in vivo
Experimental: as §1

HDV [2] = settings: in vivo; cited from earlier work
hepatocytes = settings: cited from earlier work
HDV [3] = settings: in vitro; cited from earlier work
[4] = one animal in the treated group, animal 4543

SMILES: Cc1cn([C@H]2O[C@@H](CO)[C@H](O)[C@H]2F)c(=O)[nH]c1=O [L-FMAU, 2′-fluoro-5-methyl-β-L-arabinofuranosyl-uridine]
- HDV RNA in serum (HDV [1]; 10 mg/kg L-FMAU daily, by 16 weeks of treatment (FIG. 6A)): undetectable in ¾ treated animals
- HDV viremia, animal 4543 (HDV [1]; [4]): remained high
- serum HDV-RNA (FIG. 6A) (HDV [1]; over twenty weeks of treatment): significant decrease
- mean serum HDV RNA (HDV [1]; woodchucks 4878, 4879, 4883, by 8 weeks of treatment vs start of treatment and vs five untreated animals (FIG. 8)): dramatic decline
- decrease in serum WHV DNA (WHV; 10 mg/kg L-FMAU daily, by 4 weeks of treatment, all treated animals (FIG. 6B)): > 10^7 fold
- serum WHV-DNA (FIG. 6B) (WHV; over twenty weeks of treatment): significant decrease
- decrease in surface antigen levels (WHV surface antigen; 10 mg/kg L-FMAU daily, by 12 weeks, all but one (animal 4543) of the treated animals (FIG. 6C)): ~1,000 fold
- levels of surface antigen, animal 4543 (WHV surface antigen; [4]): did not exhibit decreased levels
- serum WHsAg (FIG. 6C) (WHV surface antigen; over twenty weeks of treatment): significant decrease
- surface antigen concentration after which HDV viremia became undetectable (WHV surface antigen; treated animals with decreased surface antigen, sustained for remainder of treatment): less than 1 microgram/mL
- drop of WHsAg levels during treatment (WHV surface antigen; treated woodchucks 4878, 4879 and 4883): more than 100 fold

SMILES: NC(=O)c1ncn([C@@H]2O[C@H](CO)[C@@H](O)[C@H]2O)n1 [Ribavirin]
- side-effects (HDV [2]): severe side-effects
- virological or biochemical parameters (HDV [2]): did not significantly affect

SMILES: Cc1ccc(C(=O)Nc2ccc(S(=O)(=O)O)c3cc(S(=O)(=O)O)cc(S(=O)(=O)O)c23)cc1NC(=O)c1cccc(NC(=O)Nc2cccc(C(=O)Nc3cc(C(=O)Nc4ccc(S(=O)(=O)O)c5cc(S(=O)(=O)O)cc(S(=O)(=O)O)c45)ccc3C)c2)c1 [suramin]
- entry of the virion into hepatocytes (hepatocytes): blocks

SMILES: Nc1nc2c(ncn2COCCO)c(=O)[nH]1 [Acyclovir]
- HDV replication (HDV [3]): enhances

— patent US7511027B2, “Method of treating hepatitis delta virus infection” (Georgetown University, priority 2000, dated 2009)
